Measured values reported in patent US8481584B2, “1H-thieno[2,3-c]pyrazole derivatives useful as kinase inhibitors” (Nerviano Medical Sciences S.R.L., priority 2004, dated 2013).
Read-outs that look alike come from different tables or passages of the source.

Tests used:
Aurora-2 = biological target: T1, Aurora-2 (Homo sapiens, UniProt O14965); assay: Inhibition assay of Aurora-2 activity (SPA technology); type: biochemical
T1 sequence (O14965 1-403): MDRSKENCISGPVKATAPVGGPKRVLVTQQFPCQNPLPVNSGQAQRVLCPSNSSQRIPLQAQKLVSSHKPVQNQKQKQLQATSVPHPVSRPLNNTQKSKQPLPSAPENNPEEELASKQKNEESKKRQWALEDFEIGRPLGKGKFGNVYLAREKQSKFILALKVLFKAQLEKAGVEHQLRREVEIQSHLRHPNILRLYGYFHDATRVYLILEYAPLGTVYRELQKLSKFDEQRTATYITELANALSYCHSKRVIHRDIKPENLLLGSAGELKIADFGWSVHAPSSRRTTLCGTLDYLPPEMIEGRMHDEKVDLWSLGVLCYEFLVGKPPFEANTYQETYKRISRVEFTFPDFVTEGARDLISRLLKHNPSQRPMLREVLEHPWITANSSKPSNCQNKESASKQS
Experimental: The inhibiting activity and the potency of selected compounds is determined through a method of assay based on the use of the SPA technology (Amersham Pharmacia Biotech).
The assay consists of the transfer of radioactivity labelled phosphate moiety by the kinase to a biotinylated substrate. The resulting 33P-labelled biotinylated product is allowed to bind to streptavidin-coated SPA beads (biotin capacity 130 pmol/mg), and light emitted was measured in a scintillation counter.
Inhibition Assay of Aurora-2 Activity
After 60 minutes at room temperature incubation, reaction was stopped and biotinylated peptide captured by adding 100 μl of bead suspension.
Stratification: 100 μl of CsCl2 5 M were added to each well and let stand 4 hour before radioactivity was counted in the Top-Count instrument.
Experimental data were analyzed by the computer program GraphPad Prizm using the four parameter logistic equation: y=bottom+(top−bottom)/(1+10^((logIC50−x)*slope)) where x is the logarithm of the inhibitor concentration, y is the response; y starts at bottom and goes to top with a sigmoid shape.

[1] = tested on: human colon cancer cell line HCT-116; assay: In vitro cell proliferation assay; type: cell-based; conditions: HCT-116, 72 hours of treatment, cell count, read-out: Cell Antiproliferation IC50
Experimental: The compounds of the invention were further tested, in vitro, to assess the anti-proliferative effect onto cell cultures.
In Vitro Cell Proliferation Assay
The human colon cancer cell line HCT-116 was seeded at 5000 cells/cm2 in 24 wells plate (Costar) using F12 medium (Gibco) supplemented with 10% FCS (EuroClone, Italy) 2 mM L-glutamine and 1% penicillin/streptomycin and maintained at 37° C., 5% CO2 and 96% relative humidity. The following day, plates were treated in duplicates with 5 ul of an appropriate dilution of compounds starting from a 10 mM stock in DMSO. Two untreated control wells were included in each plate. After 72 hours of treatment, medium was withdrawn and cells detached from each well using 0.5 mL of 0.05% (w/v) Trypsin, 0.02% (w/v) EDTA (Gibco). Samples were diluted with 9.5 mL of Isoton (Coulter) and counted using a Multisizer 3 cell counter (Beckman Coulter). Data were evaluated as percent of the control wells: % of CTR=(Treated−Blank)/(Control−Blank).
IC50 values were calculated by LSW/Data Analysis using Microsoft Excel sigmoidal curve fitting.

[2] = SPA assay, 10 μM ATP, 60 minutes at room temperature, read-out: Aurora-2 inhibition IC50
[3] = screened according to the methods of the pharmacology section, read-out: IC50 values for Aurora-2 inhibition

CN1CCN(c2ccc(C(=O)Nc3n[nH]c4sc(C(=O)NC(C)(C)c5ccccc5)cc34)cc2)CC1 [Compound 29, N-(1-methyl-1-phenylethyl)-3-{[4-(4-methylpiperazin-1-yl)benzoyl]amino}-1H-thieno[2,3-c]pyrazole-5-carboxamide]
IC50 (Aurora-2; [2]): 1 nM
IC50 (Aurora-2; [3]): < 20 nM
IC50 [1]: 2 nM

C[C@@H](NC(=O)c1cc2c(NC(=O)c3ccc(N4CCN(C)CC4)cc3)n[nH]c2s1)c1ccccc1 [Compound 36, 3-{[4-(4-methylpiperazin-1-yl)benzoyl]amino}-N-[(1R)-1-phenylethyl]-1H-thieno[2,3-c]pyrazole-5-carboxamide]
IC50 [1]: 5 nM

C[C@@H](NC(=O)c1cc2c(NC(=O)c3ccc(N4CCOCC4)cc3)n[nH]c2s1)c1ccc(F)cc1 [Compound 3, N-[(1R)-1-(4-fluorophenyl)ethyl]-3-[(4-morpholin-4-ylbenzoyl)amino]-1H-thieno[2,3-c]pyrazole-5-carboxamide]
IC50 (Aurora-2; [2]): 6 nM
IC50 (Aurora-2; [3]): < 20 nM
IC50 [1]: 35 nM

O=C(Nc1n[nH]c2sc(C(=O)NCc3ccccc3)cc12)c1ccc(N2CCOCC2)cc1 [Reference compound, N-benzyl-3-[(4-morpholin-4-ylbenzoyl)amino]-1H-thieno[2,3-c]pyrazole-5-carboxamide, reference compound]
IC50 (Aurora-2; [2]): 18 nM
IC50 [1]: 184 nM

CC(C)(NC(=O)c1cc2c(NC(=O)c3ccc(N4CCOCC4)cc3)n[nH]c2s1)c1ccccc1 [Compound 1, N-(1-methyl-1-phenylethyl)-3-[(4-morpholin-4-ylbenzoyl)amino]-1H-thieno[2,3-c]pyrazole-5-carboxamide]
IC50 (Aurora-2; [2]): 5 nM
IC50 (Aurora-2; [3]): < 20 nM
IC50 [1]: 6 nM

O=C(Nc1n[nH]c2sc(C(=O)N[C@H](CN3CCCC3)c3ccccc3)cc12)c1ccc(N2CCOCC2)cc1 [Compound 5, 3-[(4-morpholin-4-ylbenzoyl)amino]-N-[(1S)-1-phenyl-2-pyrrolidin-1-ylethyl]-1H-thieno[2,3-c]pyrazole-5-carboxamide]
IC50 (Aurora-2; [2]): 9 nM
IC50 (Aurora-2; [3]): < 20 nM
IC50 [1]: 30 nM

CC(C)(NC(=O)c1cc2c(NC(=O)c3cccs3)n[nH]c2s1)c1ccccc1 [Compound 16, N-(1-methyl-1-phenylethyl)-3-[(thien-2-ylcarbonyl)amino]-1H-thieno[2,3-c]pyrazole-5-carboxamide]
IC50 (Aurora-2; [2]): 3 nM
IC50 (Aurora-2; [3]): < 20 nM
IC50 [1]: 56 nM

CC(C)(NC(=O)c1cc2c(NC(=O)c3ccco3)n[nH]c2s1)c1ccccc1 [Compound 24, 3-(2-furoylamino)-N-(1-methyl-1-phenylethyl)-1H-thieno[2,3-c]pyrazole-5-carboxamide]
IC50 (Aurora-2; [3]): < 20 nM

CC(C)(NC(=O)c1cc2c(NC(=O)c3cccs3)n[nH]c2s1)c1ccc(F)cc1 [Compound 151, 3-[(Thiophene-2-carbonyl)-amino]-1H-thieno[2,3-c]pyrazole-5-carboxylic acid [1-(4-fluoro-phenyl)-1-methyl-ethyl]-amide]
IC50 (Aurora-2; [3]): < 20 nM

CC(C)(NC(=O)c1cc2c(NC(=O)c3ccc(CN4CCNCC4)cc3)n[nH]c2s1)c1ccccc1 [Compound 47, 3-(4-piperazin-1-ylmethyl-benzoylamino)-1H-thieno[2,3-c]pyrazole-5-carboxylic acid (1-methyl-1-phenyl-ethyl)-amide]
IC50 (Aurora-2; [3]): < 20 nM

O=C(Nc1n[nH]c2sc(C(=O)NC3(c4ccccc4)CC3)cc12)c1ccc(N2CCOCC2)cc1 [Compound 2, 3-[(4-morpholin-4-ylbenzoyl)amino]-N-(1-phenylcyclopropyl)-1H-thieno[2,3-c]pyrazole-5-carboxamide]
IC50 (Aurora-2; [2]): 3 nM
IC50 (Aurora-2; [3]): < 20 nM
IC50 [1]: 23 nM

CC(C)(NC(=O)c1cc2c(NC(=O)c3ccc(CNC4CCC4)cc3)n[nH]c2s1)c1ccccc1 [Compound 63, 3-(4-Cyclobutylaminomethyl-benzoylamino)-1H-thieno[2,3-c]pyrazole-5-carboxylic acid (1-methyl-1-phenyl-ethyl)-amide]
IC50 (Aurora-2; [3]): < 20 nM

O=C(Nc1n[nH]c2sc(C(=O)NC3(c4ccccc4)CCCC3)cc12)c1cccs1 [Compound 122, 3-[(Thiophene-2-carbonyl)-amino]-1H-thieno[2,3-c]pyrazole-5-carboxylic acid (1-phenyl-cyclopentyl)-amide]
IC50 (Aurora-2; [3]): < 20 nM

CC(C)(NC(=O)c1cc2c(NC(=O)c3ccc(N4CCS(=O)(=O)CC4)cc3)n[nH]c2s1)c1ccccc1 [Compound 144, 3-[4-(1,1-Dioxo-thiomorpholin-4-yl)-benzoylamino]-1H-thieno[2,3-c]pyrazole-5-carboxylic acid (1-methyl-1-phenyl-ethyl)-amide]
IC50 (Aurora-2; [3]): < 20 nM

CC(C)(NC(=O)c1cc2c(NC(=O)c3ccc(CN4CCC4)cc3)n[nH]c2s1)c1ccccc1 [Compound 53, 3-(4-Azetidin-1-ylmethyl-benzoylamino)-1H-thieno[2,3-c]pyrazole-5-carboxylic acid (1-methyl-1-phenyl-ethyl)-amide]
IC50 (Aurora-2; [3]): < 20 nM
